Experiments:
Type in all cases: in vivo
Setaria faberi (SETFA) = assay: Glasshouse herbicide test, pre- and post-emergence, Setaria faberi; details: 250 g/h, evaluated after 13 days; for SETFA POST, percentage damage caused to the plant (five point scale): post-emergence; for SETFA PRE, percentage damage caused to the plant (five point scale): pre-emergence
Experimental: (§1) Seeds of a variety of test species are sown in standard soil in pots (Lolium perenne (LOLPE), Setaria faberi (SETFA), Alopecurus myosuroides (ALOMY), Echinochloa crus-galli (ECHCG), Avena fatua (AVEFA)). After cultivation for one day (pre-emergence) or after 8 days cultivation (post-emergence) under controlled conditions in a glasshouse (at 24/16° C., day/night; 14 hours light; 65% humidity), the plants are sprayed with an aqueous spray solution derived from the formulation of the technical active ingredient in acetone/water (50:50) solution containing 0.5% Tween 20 (polyoxyethelyene sorbitan monolaurate, CAS RN 9005-64-5). Compounds are applied at […]. The test plants are then grown in a glasshouse under controlled conditions in a glasshouse (at 24/16° C., day/night; 14 hours light; 65% humidity) and watered twice daily. After 13 days for pre and post-emergence, the test is evaluated for the percentage damage caused to the plant. The biological activities are shown in the following table on a five point scale (5=80-100%; 4=60-79%; 3=40-59%; 2=20-39%; 1=0-19%).

Lolium perenne (LOLPE) = assay: Glasshouse herbicide test, pre- and post-emergence, Lolium perenne; details: 250 g/h, evaluated after 13 days; for LOLPE POST, percentage damage caused to the plant (five point scale): post-emergence; for LOLPE PRE, percentage damage caused to the plant (five point scale): pre-emergence
Experimental: as §1

[1] = tested on: Alopecurus myosuroides (ALOMY); assay: Glasshouse herbicide test, pre- and post-emergence, Alopecurus myosuroides; details: 250 g/h, evaluated after 13 days; for ALOMY POST, percentage damage caused to the plant (five point scale): post-emergence; for ALOMY PRE, percentage damage caused to the plant (five point scale): pre-emergence
Experimental: as §1

[2] = tested on: Echinochloa crus-galli (ECHCG); assay: Glasshouse herbicide test, pre- and post-emergence, Echinochloa crus-galli; details: 250 g/h, evaluated after 13 days; for ECHCG POST, percentage damage caused to the plant (five point scale): post-emergence; for ECHCG PRE, percentage damage caused to the plant (five point scale): pre-emergence
Experimental: as §1

Avena fatua (AVEFA) = assay: Glasshouse herbicide test, pre- and post-emergence, Avena fatua; details: 250 g/h, evaluated after 13 days; for AVEFA POST, percentage damage caused to the plant (five point scale): post-emergence; for AVEFA PRE, percentage damage caused to the plant (five point scale): pre-emergence
Experimental: as §1

Row | SMILES | SETFA POST, percentage damage caused to the plant (five point scale) (Setaria faberi (SETFA)) | SETFA PRE, percentage damage caused to the plant (five point scale) (Setaria faberi (SETFA)) | LOLPE POST, percentage damage caused to the plant (five point scale) (Lolium perenne (LOLPE)) | LOLPE PRE, percentage damage caused to the plant (five point scale) (Lolium perenne (LOLPE)) | ALOMY POST, percentage damage caused to the plant (five point scale) [1] | ALOMY PRE, percentage damage caused to the plant (five point scale) [1] | ECHCG POST, percentage damage caused to the plant (five point scale) [2] | ECHCG PRE, percentage damage caused to the plant (five point scale) [2] | AVEFA POST, percentage damage caused to the plant (five point scale) (Avena fatua (AVEFA)) | AVEFA PRE, percentage damage caused to the plant (five point scale) (Avena fatua (AVEFA))
1 | CC#Cc1ccc(C2C(=O)[C@@H]3[C@@H]4O[C@@H](C[C@@H]4COC)[C@@H]3C2=O)c(OC)c1 (mixture of isomers) [Compound 1.9, 8-methoxymethyl-4-[2-methoxy-4-(prop-1-yn-1-yl)phenyl]-10-oxatricyclo[5.2.1.0^2,6]decane-3,5-dione] | 5 (5=80-100%) | 5 (5=80-100%) | 5 (5=80-100%) | 5 (5=80-100%) | 5 (5=80-100%) | 5 (5=80-100%) | 5 (5=80-100%) | 5 (5=80-100%) | 5 (5=80-100%) | 5 (5=80-100%)
2 | CC#Cc1ccc(C2C(=O)[C@H]3[C@@H]4CC[C@@](COC)(O4)[C@H]3C2=O)c(OC)c1 (mixture of isomers) [Compound 1.12] | 5 (5=80-100%) | 5 (5=80-100%) | 5 (5=80-100%) | 5 (5=80-100%) | 5 (5=80-100%) | 5 (5=80-100%) | 5 (5=80-100%) | 5 (5=80-100%) | 5 (5=80-100%) | 5 (5=80-100%)
3 | CC#Cc1ccc(C2C(=O)[C@@H]3[C@@H]4O[C@@H](C[C@@H]4CO)[C@@H]3C2=O)c(OC)c1 (mixture of isomers) [Compound 1.14] | 5 (5=80-100%) |  | 4 (4=60-79%) |  | 3 (3=40-59%) |  | 5 (5=80-100%) |  | 5 (5=80-100%) | 
4 | CC#Cc1ccc(C2C(=O)[C@@H]3[C@@H]4O[C@@H](C[C@H]4COC)[C@@H]3C2=O)c(OC)c1 (mixture of isomers) [Compound 1.15] | 5 (5=80-100%) | 5 (5=80-100%) | 5 (5=80-100%) | 5 (5=80-100%) | 5 (5=80-100%) | 5 (5=80-100%) | 5 (5=80-100%) | 5 (5=80-100%) | 5 (5=80-100%) | 5 (5=80-100%)
5 | CC#Cc1ccc(C2C(=O)[C@@H]3[C@H](C2=O)[C@H]2C=C(C)[C@@H]3O2)c(OC)c1 (mixture of isomers) [Compound 1.16] | 5 (5=80-100%) | 5 (5=80-100%) | 5 (5=80-100%) | 5 (5=80-100%) | 5 (5=80-100%) | 5 (5=80-100%) | 5 (5=80-100%) | 5 (5=80-100%) | 5 (5=80-100%) | 5 (5=80-100%)
6 | CC#Cc1ccc(C2C(=O)[C@@H]3[C@@H]4O[C@@H](C[C@H]4/C=N/OC)[C@@H]3C2=O)c(OC)c1 (mixture of isomers) [Compound 1.17] | 5 (5=80-100%) | 5 (5=80-100%) | 5 (5=80-100%) | 5 (5=80-100%) | 5 (5=80-100%) | 5 (5=80-100%) | 5 (5=80-100%) | 5 (5=80-100%) | 5 (5=80-100%) | 5 (5=80-100%)
7 | CC#Cc1ccc(C2C(=O)[C@@H]3[C@@H]4O[C@@H](C[C@@H]4C4OCCO4)[C@@H]3C2=O)c(OC)c1 (mixture of isomers) [Compound 1.18] | 5 (5=80-100%) | 5 (5=80-100%) | 5 (5=80-100%) | 5 (5=80-100%) | 5 (5=80-100%) | 4 (4=60-79%) | 5 (5=80-100%) | 5 (5=80-100%) | 5 (5=80-100%) | 4 (4=60-79%)
8 | CC#Cc1ccc(C2C(=O)[C@@H]3[C@@H]4O[C@@H](C[C@@H]4OC)[C@@H]3C2=O)c(OC)c1 (mixture of isomers) [Compound 1.25] | 5 (5=80-100%) | 5 (5=80-100%) | 5 (5=80-100%) | 5 (5=80-100%) | 5 (5=80-100%) | 5 (5=80-100%) | 5 (5=80-100%) | 5 (5=80-100%) | 5 (5=80-100%) | 5 (5=80-100%)
9 | CC#Cc1ccc(C2=C(OC(=O)C(C)(C)C)[C@@H]3[C@H](C2=O)[C@@H]2O[C@H]3C[C@@H]2COC)c(OC)c1 (racemic) [Compound 1.26] | 5 (5=80-100%) | 5 (5=80-100%) | 5 (5=80-100%) | 5 (5=80-100%) | 5 (5=80-100%) | 5 (5=80-100%) | 5 (5=80-100%) | 5 (5=80-100%) | 5 (5=80-100%) | 5 (5=80-100%)
10 | CC#Cc1ccc(C2=C(OC(=O)C(C)C)[C@@H]3[C@H](C2=O)[C@@H]2O[C@H]3C[C@@H]2COC)c(OC)c1 (racemic) [Compound 1.27] | 5 (5=80-100%) | 5 (5=80-100%) | 5 (5=80-100%) | 5 (5=80-100%) | 5 (5=80-100%) | 5 (5=80-100%) | 5 (5=80-100%) | 5 (5=80-100%) | 5 (5=80-100%) | 5 (5=80-100%)

Reference: patent US20200113181A1, “HERBICIDAL COMPOUNDS” (SYNGENTA PARTICIPATIONS AG, priority 2016, published 2020)
